Test results reported in publication PMC8847695 (Frontiers in Chemistry, 2022).

How the values were obtained:
Assay type in all cases: binding
Details in all cases: 1 = hit, 0 = no hit
AAK1 (121-471) = AAK1 (121-471) (Homo sapiens, UniProt Q2M2I8); experiment: STD-NMR fragment screening, AAK1
Procedure: (§1) All fragments were stored at −20°C as solids in argon flushed glass bottles. For NMR screening, fragments were weighed and dissolved in DMSO-d6 to a stock concentration of 300 mM. Mother plates were prepared with a 100 mM concentration. From these plates, daughter plates were prepared with the fragments mixed in the plates to a concentration of 50 mM for each fragment. Daughter plates were opened a maximum of eight times. The plates were argon flushed and sealed with a HT121TS (HTA) and Foil Heat Seal (Biozym).
(§2) For long time measurements, like the protein ^1H NMR spectrum, the buffer exchange was performed twice to reduce residual buffer peaks. All experiments were performed on a Bruker Avance III HDX 700 instrument, equipped with a 5 mm Prodigy TCI cryo-probehead. For every protein, a standard ^1H NMR experiment with 1 k scans and water suppression through presaturation was performed. […] The on-resonance frequency, which was determined from the ^1H NMR spectra of the protein, was between 0.5 and 0.6 ppm; 40 ppm was used as the off-resonance frequency. For an interleaved acquisition of the on- and off-resonance, a pseudo-2D scheme was applied. The saturation was done by Gaussian pulses with a length of 50 ms and 60 dB of attenuation, with an interpulse delay of 1 ms leading to an excitation bandwidth of about 42 Hz. The screening was done with 16 scans of on- and off-resonance scans each, with a 3 s saturation time. The samples contained final concentrations of 20 µM protein, 10% (^V/V) DMSO-d6, and 1 mM of each of the two fragments. A ^1H-NMR experiment was performed for each compound to act as a reference spectrum in the STD experiments. All NMR experiments were carried out at 25°C.
(§3) Fifteen of these compounds contain the same halogen twice. No compound bears mixtures of different halogen atoms. Four proteins (AAK1, CAMK1G, IDO1, and DOT1L) were screened against this HEFLib using STD-NMR. A fragment was considered a hit if the peak intensity in the difference spectrum was three times higher than the local background noise. […] Chemical compatibility and peak complementarity were assured for these mixtures. Samples containing more than two fragments were avoided to minimize the possible target competition and to decrease the risk of fragment interactions. […] The ^1H reference NMR spectrum of the mixture is shown in red for comparison. […] As fragment mixtures can lead to competitive effects between their fragments, it is not advised to use the quantification of peak mixtures for hit ranking.

CAMK1G (1-320) = target: T1, CAMK1G (1-320) (Homo sapiens, UniProt Q96NX5); experiment: STD-NMR fragment screening, CAMK1G
T1 construct: made in house; host or cells: E. coli BL21 (DE3) pLysS
T1 sequence (Q96NX5 1-320): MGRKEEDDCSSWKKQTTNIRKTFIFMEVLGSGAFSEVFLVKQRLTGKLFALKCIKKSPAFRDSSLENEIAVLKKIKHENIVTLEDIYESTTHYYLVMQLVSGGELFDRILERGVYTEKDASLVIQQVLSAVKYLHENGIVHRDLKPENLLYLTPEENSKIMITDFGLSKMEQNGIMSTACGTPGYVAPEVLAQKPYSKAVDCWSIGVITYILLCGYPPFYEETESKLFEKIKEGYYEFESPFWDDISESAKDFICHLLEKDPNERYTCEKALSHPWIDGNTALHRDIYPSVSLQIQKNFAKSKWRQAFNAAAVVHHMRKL
Procedure: as §1, §2, §3

IDO1 (1-435) = target: T2, IDO1 (1-435) (Homo sapiens, UniProt P14902); experiment: STD-NMR fragment screening, IDO1
T2 construct: His-tag of pET15b with TEV site (thrombin site replaced) (cleaved yes); made in house; host or cells: E. coli Rosetta 2 (DE3) pLysS
T2 sequence (P14902 whole entry, the tested form may be a part): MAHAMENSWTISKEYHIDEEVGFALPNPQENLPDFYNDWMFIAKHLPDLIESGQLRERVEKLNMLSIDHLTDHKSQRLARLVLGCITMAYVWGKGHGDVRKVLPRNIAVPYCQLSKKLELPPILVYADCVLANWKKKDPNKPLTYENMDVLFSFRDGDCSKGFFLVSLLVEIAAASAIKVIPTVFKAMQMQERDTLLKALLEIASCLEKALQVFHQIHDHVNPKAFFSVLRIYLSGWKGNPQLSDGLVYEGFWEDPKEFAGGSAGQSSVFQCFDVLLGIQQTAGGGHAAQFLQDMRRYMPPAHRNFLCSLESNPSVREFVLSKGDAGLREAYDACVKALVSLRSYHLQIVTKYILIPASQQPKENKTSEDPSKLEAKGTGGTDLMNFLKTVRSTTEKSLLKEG
Procedure: as §1, §2, §3

DOT1L (1-416) = target: T3, DOT1L (1-416) (Homo sapiens, UniProt Q8TEK3); experiment: STD-NMR fragment screening, DOT1L
T3 construct: made in house; host or cells: E. coli BL21 (DE3) pLysS
T3 sequence (Q8TEK3 1-416): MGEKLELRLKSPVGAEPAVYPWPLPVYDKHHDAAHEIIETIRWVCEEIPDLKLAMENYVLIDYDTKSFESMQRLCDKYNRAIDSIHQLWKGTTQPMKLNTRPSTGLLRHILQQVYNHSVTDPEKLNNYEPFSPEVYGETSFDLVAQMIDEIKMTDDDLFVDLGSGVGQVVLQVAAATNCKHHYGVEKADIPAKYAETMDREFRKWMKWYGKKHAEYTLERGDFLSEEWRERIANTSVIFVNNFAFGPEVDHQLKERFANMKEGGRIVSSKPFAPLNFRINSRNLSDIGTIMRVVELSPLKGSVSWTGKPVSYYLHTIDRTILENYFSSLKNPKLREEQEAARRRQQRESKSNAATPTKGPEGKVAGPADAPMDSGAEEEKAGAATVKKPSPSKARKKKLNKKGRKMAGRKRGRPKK
Procedure: as §1, §2, §3

AAK1 (121-471), sequence (Q2M2I8 46-315 limits assumed): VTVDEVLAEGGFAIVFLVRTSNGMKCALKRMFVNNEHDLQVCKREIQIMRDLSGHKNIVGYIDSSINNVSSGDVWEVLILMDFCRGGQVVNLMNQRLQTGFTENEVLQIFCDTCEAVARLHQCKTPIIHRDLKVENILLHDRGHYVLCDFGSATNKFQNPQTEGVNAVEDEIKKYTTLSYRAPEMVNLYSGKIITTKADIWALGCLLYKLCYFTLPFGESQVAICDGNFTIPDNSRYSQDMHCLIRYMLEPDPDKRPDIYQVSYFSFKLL

Compound	AAK1 (STD-NMR hit flag) (AAK1 (121-471))	CAMK1G (STD-NMR hit flag) (CAMK1G (1-320))	IDO1 (STD-NMR hit flag) (IDO1 (1-435))	DOT1L (STD-NMR hit flag) (DOT1L (1-416))
NCc1cc(Cl)cc(Cl)c1N [Fragment B02290090]	0	0	0	0
COc1ccc(I)cc1CNCCO [Fragment B02290112]	0	0	0	0
Brc1cnn(-c2nnn[nH]2)c1 [Fragment B02290113]	1	0	1	0
CC(C(=O)O)n1cc(Br)cn1 (stereo not shown) [Fragment B02290114]	0	0	0	0
O=C(c1cc(Br)c[nH]1)N1CCOCC1 [Fragment B02290115]	0	1	0	0
Cn1ncc(Br)c1C(=O)O [Fragment B02290116]	0	0	1	0
NCCCn1cc(Cl)cn1 [Fragment B02290117]	0	0	0	0
NC(=O)c1nc(Cl)n[nH]1 [Fragment B02290118]	0	0	0	0
O=C(O)CCc1nc(Br)n[nH]1 [Fragment B02290119]	0	0	0	0
Cn1nc(Br)nc1NN [Fragment B02290120]	0	1	0	1
Clc1ccc(CN2CCNCC2)cn1 [Fragment B02290121]	0	0	0	0
Brc1csc(CN2CCNCC2)c1 [Fragment B02290122]	0	0	0	0
Cc1c(Cl)c([N+](=O)[O-])nn1CC(=O)O [Fragment B02290123]	0	0	1	0
O=C(c1ccc(Br)cc1)C12CN3CN(CN(C3)C1)C2 [Fragment B02290401]	0	0	0	0
O=S(=O)(CCO)c1n[nH]c(Cl)n1 [Fragment B02290402]	0	0	0	0
COCn1nc(Br)nc1C(N)=O [Fragment B02290403]	1	0	0	0
